Data from patent US11298422B2, “Treating tumors with TTFields and an aurora kinase inhibitor” (Novocure Limited, priority 2018, dated 2022).

Experiments:
[1] = test system: primary glioblastoma cell line HT12347; experiment: Normalized cell count, primary glioblastoma cells; format: cell-based; conditions: primary glioblastoma cell-lines, compared to each treatment alone; Mann-Whitney-U-test, p<0.01
Description: In addition to U87-MG cells, primary tumor-cell lines were established from glioblastoma tissue taken intraoperatively. TTFields (1.6 V/cm RMS, 200 kHz) were applied for 72 hours using the InovitroTM system. AZD1152 was added to the media in concentrations of up to 100 nmol/l. Cell counts, cell cycle and clonogenic potential were determined at the end of treatment. Primary tumor-cell-lines were analyzed. In addition, MLN8237, an Aurora A kinase inhibitor, was tested in concentrations up to 50 nmol/l for the treatment of U87-MG and primary tumor-cell lines to further establish Aurora kinase inhibition as a target for combination therapy with TTFields. […] FIGS. 5A and 5B show the normalized cell counts after treatment with TTFields and AZD1152, alone and in combination, on U87-MG (FIG. 5A) and primary glioblastoma cell line HT12347 (FIG. 5B) at the indicated AZD1152 concentration and […] frequency. The exemplary box plots show the normalized cell count after treatment with AZD1152 alone, TTFields alone, and combination of AZD1152 and TTFields. “***” marks significant differences where p<0.001. […] FIGS. 8A-8B show the normalized cell counts after treatment with TTFields and MLN8237, alone and in combination, on U87-MG (FIG. 8A) and primary glioblastoma cell line HT12347 (FIG. 8B). […]

[2] = test system: primary glioblastoma cell line HT12347; experiment: Light microscopy, primary glioblastoma cells; format: cell-based; conditions: HT12347, TTFields and MLN8237 combination vs control and each alone (FIGS. 10A-10D)
Description: Cells were treated with control, AZD1152, TTFields, or a combination of both. […] FIGS. 10A-10D show exemplary light microscopy images of primary glioblastoma cells HT12347 after the following treatment: 10A: control; 10B: after […] treatment; 10C: after treatment with MLN8237 alone; 10D: after treatment with TTFields and MLN8237.

[3] = test system: glioblastoma cell line HT 12347; experiment: PI (propium iodide) staining of DNA content, primary glioblastoma cells; format: cell-based; conditions: HT 12347, TTFields combined with MLN8237 (FIGS. 9A-9E)
Description: FIGS. 9A-9E show exemplary PI (propium iodide) staining results showing DNA content after treatment with TTFields alone, […] alone, and in combination in glioblastoma cell line HT 12347 with corresponding cell cycle histograms. FIG. 9A is a summary, with 2n in light gray, 4n in dark gray, and r>4n in black; FIG. 9B is a cell cycle histogram for the control; FIG. 9C is a cell cycle histogram for […] treatment alone; FIG. 9D is a cell cycle histogram for MLN8237 alone; and FIG. 9E is a cell cycle histogram for TTFields combined with MLN8237.

U87-MG = experiment: Normalized cell count, U87-MG (additional study); format: cell-based, human; conditions: compared to each treatment alone, Mann-Whitney-U-test, p<0.01
Description: In addition to U87-MG cells, primary tumor-cell lines were established from glioblastoma tissue taken intraoperatively. TTFields (1.6 V/cm RMS, 200 kHz) were applied for 72 hours using the Inovitro™ system. AZD1152 was added to the media in concentrations of up to 100 nmol/l. Cell counts, cell cycle and clonogenic potential were determined at the end of treatment. Primary tumor-cell-lines were analyzed. In addition, MLN8237, an Aurora A kinase inhibitor, was tested in concentrations up to 50 nmol/l for the treatment of U87-MG and primary tumor-cell lines to further establish Aurora kinase inhibition as a target for combination therapy with TTFields. […] FIGS. 8A-8B show the normalized cell counts after treatment with TTFields and MLN8237, alone and in combination, on U87-MG (FIG. 8A) and primary glioblastoma cell line HT12347 (FIG. 8B). The exemplary box plots show the normalized cell count after treatment with TTFields alone, MLN8237 alone, and combination of MLN8237 and TTFields in U87 cells ([…]), and in HT12347 glioblastoma cells (FIG. 8B). The greatest reduction in the percentage of living cells in relation to the control is shown with the combination of TTFields and MLN8237.

## COc1cc(Nc2ncc3c(n2)-c2ccc(Cl)cc2C(c2c(F)cccc2OC)=NC3)ccc1C(=O)O [MLN8237, Alisertib]
[1]
  cell numbers after combined treatment of MLN8237 and TTFields: significant decrease of cell numbers
[2]
  number of cells in light microscopy images: lowest number of cells
[3]
  multinuclear and polyploid cells (PI staining, DNA content): higher number of multinuclear and polyploid cells
U87-MG
  cell numbers after combined treatment of MLN8237 and TTFields: significant decrease of cell numbers
